Counter-ions that a name gives are not always drawn.
Key:
acetylcolinesterase = conditions: Indian J. Pharm., 33, 80 (1971); cited from earlier work
[1] = Acute toxicity test (mouse, oral administration); conditions: in vivo, male ICR mice, fasted 18 hours
Method: Tests were made using groups each comprising five male ICR strain mice weighing 30 to 35 g and being kept under a fast for 18 hours. The compound to be tested was suspended in a 1% tragacanth solution. After the concentration of the suspensions was adjusted in a volume of 40 ml/kg, the compound was administered orally to the mouse.

[2] = tested on: blood flow of the circumflex branch of left coronary artery (dog); experiment: Increasing activity of coronary blood flow in anesthetized dogs; type: in vivo, dog (mongrel); conditions: Canis lupus familiaris, 0.1 mg/kg iv, read-out: Increase rate of coronary blood flow
Method: Increasing activity of coronary blood flow
Male and female mongrel dogs weighing 8 to 17.5 kg were anesthetized with intravenous administration of sodium pentobarbital at a dosage of 30 mg/kg. Under artificial respiration the chest was opened on the left side at the level of the fourth intercostal space and the heart was exposed. The circumflex branch of left coronary artery just below the junction of the anterior descending branch of left coronary artery was isolated in a width of approximately 1 cm, and a flow probe was placed around this artery in order to measure the blood flow of the circumflex branch of left coronary artery by means of an electromagnetic flow meter. During the tests, systemic blood pressure was monitored, and data obtained from tests where the mean blood presure was less than 65 mmHg were excluded from the final data. The pharmaceutical compound to be tested was dissolved in physiological saline or 50% ethanol/50% physiological saline and the thus obtained solution was intravenously administered at a dosage of 1 ml/10 kg through a polyethylene catheter which had been provided within the left femoral vein. The increasing activity of the blood flow of the circumflex branch of left coronary artery was evaluated and expressed in terms of increase rate of the blood flow after the administration of the compound to that of before the administration of the compound.

[3] = tested on: calcium induced contraction of the isolated thoracic aorta in rats; experiment: Calcium antagonistic activity: relaxation of calcium induced contraction of isolated thoracic aorta; type: cell-based, rat (male Wistar strain); conditions: spiral specimen of rat thoracic aorta, 80 mM potassium, 10 mM Ca++; relaxing activity; read-out: Minimum effective concentration
Method: Calcium antagonistic activity
Calcium antagonistic activity of the present compound was investigated by observing the effects on the calcium induced contraction of the isolated thoracic aorta in rats.
A piece of thoracic aorta was isolated from male Wistar strain rats weighing 350-450 g in order to prepare a spiral specimen. This specimen was suspended in a Krebs-Henseleit solution free from calcium. The contraction was evoked by an application of CaCl2 in the presence of 80 mM potassium so as to adjust the solution at a concentration of 10 mM Ca^++. The present compound to be tested was applied to the specimen which had been maximally contracted and was evaluated for its relaxing activity.

[4] = tested on: spontaneously hypertensive rats (SHR), average blood pressure; experiment: Antihypertensive activity in spontaneously hypertensive rats; type: in vivo, rat (SHR); conditions: oral
Method: Antihypertensive activity
The compounds to be tested were administered orally to evaluate antihypertensive activity in spontaneously hypertensive rats (hereinafter SHR).
The average blood pressure of male SHR, 20 to 30 weeks old, was measured in a non-anestetised and non restraint state, through a catheter which had been chronically implanted into the abdominal aorta through the right fermoral artery, using an electromanometer. At the same time, the heart rate was measured by a tachometer triggered by the pulse pressure. The compound to be tested was suspended in a 1% tragacanth solution. After the concentration of the suspensions was adjusted in a volume of 5 ml/kg, the compound was administered orally to the SHR. The blood pressure and heart rate were measured 0.5, 1, 3, 6 and 24 hours after the administration.

CCCCN(CCCC)CCCn1c(C)nc2ccc(Cl)cc2c1=O [2-methyl-3-(3-dibutylaminopropyl)-6-chloro-4(3H)-quinazolinone]
inhibitive activity of acetylcolinesterase (acetylcolinesterase): inhibitive activity of acetylcolinesterase

CCN(CC)CCn1c(Cc2cc(OC)ccc2OC)nc2ccccc2c1=O [Compound 13]
LD50 [1]: 700 mg/kg
change in vivo at 0.1 mg/kg [2]: 32.7%
minimal effective concentration [3]: 3 µM

CCN(CC)CCCn1c(Cc2cc(OC)ccc2OC)nc2ccccc2c1=O [Compound 14]
change in vivo at 0.1 mg/kg [2]: 42.7%
minimal effective concentration [3]: 1 µM

COc1ccc(OC)c(Cc2nc3ccccc3c(=O)n2CCN2CCCC2)c1 [Compound 15]
change in vivo at 0.1 mg/kg [2]: 45.3%
minimal effective concentration [3]: 0.3 µM

CCN(CC)CCn1c(Cc2ccccc2OCc2ccccc2)nc2ccccc2c1=O [Compound 19]
minimal effective concentration [3]: 0.3 µM

CCN(CC)CCn1c(Cc2ccc(OCc3ccccc3)cc2)nc2ccccc2c1=O [Compound 20]
minimal effective concentration [3]: 0.3 µM

CCN(CC)CCn1c(Cc2cc(OC)ccc2OC)nc2ccc(I)cc2c1=O [Compound 26]
minimal effective concentration [3]: 1 µM

COc1ccc(OC)c(Cc2nc3ccc(OC(C)C)cc3c(=O)n2CCCN(C)C)c1 [Compound 30, 2-(2,5-Dimethoxyphenylmethyl)-3-(3-dimetylaminopropyl)-6-isopropoxy-4(3H)-quinazolinone maleate]
minimal effective concentration [3]: 0.3 µM

COc1ccc(OC)c(Cc2nc3ccc(C)cc3c(=O)n2CCN2CCCC2)c1 [Compound 31]
LD50 [1]: 1000 mg/kg
change in vivo at 0.1 mg/kg [2]: 42.5%
minimal effective concentration [3]: 1 µM

COc1ccc(OC)c(Cc2nc3ccc(OC(C)C)cc3c(=O)n2CCN(C)C)c1 [Compound 47]
LD50 [1]: 750 mg/kg
Increase rate of average blood pressure after administration, after 1 hour ([4]; 10 mg/kg): -12%
Increase rate of average blood pressure after administration, after 3 hours ([4]; 10 mg/kg): -3%
change in vivo at 0.1 mg/kg [2]: 95.4%
minimal effective concentration [3]: 0.1 µM

COc1ccc(Cc2nc3ccc(OC(C)C)cc3c(=O)n2CCN(C)C)cc1 [Compound 50]
LD50 [1]: 700 mg/kg
Increase rate of average blood pressure after administration, after 1 hour ([4]; 10 mg/kg): -17%
Increase rate of average blood pressure after administration, after 3 hours ([4]; 10 mg/kg): -7%
minimal effective concentration [3]: 0.3 µM

CCC(C)Oc1ccc2nc(Cc3cc(OC)ccc3OC)n(CCN(C)C)c(=O)c2c1 (stereo not shown) [Compound 63]
LD50 [1]: 1200 mg/kg
change in vivo at 0.1 mg/kg [2]: 77.3%
minimal effective concentration [3]: 0.3 µM

CCC(C)Oc1ccc2nc(Cc3cc(OC)ccc3OC)n(CCCN(C)C)c(=O)c2c1 (stereo not shown) [Compound 64]
change in vivo at 0.1 mg/kg [2]: 47.6%
minimal effective concentration [3]: 0.3 µM

COc1ccc(Cc2nc3cc(OC)c(OC(C)C)cc3c(=O)n2CCN(C)C)cc1 [Compound 82]
LD50 [1]: 750 mg/kg
Increase rate of average blood pressure after administration, after 1 hour ([4]; 10 mg/kg): -24%
Increase rate of average blood pressure after administration, after 3 hours ([4]; 10 mg/kg): -15%

COc1ccc(OC)c(Cc2nc3ccccc3c(=O)n2CCN(C)CCc2ccc(OC)c(OC)c2)c1 [Compound 93]
minimal effective concentration [3]: 0.03 µM

COc1ccc(OC)c(Cc2nc3ccc(OC(C)C)cc3c(=O)n2CCN(C)CCc2ccc(OC)c(OC)c2)c1 [Compound 102]
LD50 [1]: 1000 mg/kg
Increase rate of average blood pressure after administration, after 1 hour ([4]; 10 mg/kg): -11%
Increase rate of average blood pressure after administration, after 3 hours ([4]; 10 mg/kg): -2%
change in vivo at 0.1 mg/kg [2]: 53.6%
minimal effective concentration [3]: 0.03 µM

COc1ccc(OC)c(Cc2nc3ccc(OC(C)C)cc3c(=O)n2CCCN(C)CCc2ccc(OC)c(OC)c2)c1 [Compound 103]
minimal effective concentration [3]: 0.1 µM

COc1ccc(OC)c(Cc2nc3ccc(C)cc3c(=O)n2CCN(C)CCc2ccc(OC)c(OC)c2)c1 [Compound 114]
minimal effective concentration [3]: 0.1 µM

COc1ccc(OC)c(Cc2nc3ccc(I)cc3c(=O)n2CCN(C)CCc2ccc(OC)c(OC)c2)c1 [Compound 116]
minimal effective concentration [3]: 0.03 µM

CCOc1ccc2nc(Cc3cc(OC)ccc3OC)n(CCN(C)CCc3ccc(OC)c(OC)c3)c(=O)c2c1 [Compound 121]
minimal effective concentration [3]: 0.03 µM

COc1ccc([C@@H]2Sc3ccccc3N(CCN(C)C)C(=O)[C@@H]2OC(C)=O)cc1 [diltiazem, reference compound]
LD50 [1]: 650 mg/kg
Increase rate of average blood pressure after administration, after 1 hour ([4]; 30 mg/kg): -8%
Increase rate of average blood pressure after administration, after 3 hours ([4]; 30 mg/kg): 0%
Increase rate of average blood pressure after administration, after 1 hour ([4]; 100 mg/kg): -28%
Increase rate of average blood pressure after administration, after 3 hours ([4]; 100 mg/kg): -14%
change in vivo at 0.1 mg/kg [2]: 91.2%
minimal effective concentration [3]: 0.3 µM
